This passage reports IC50 results from patent US20220153734A1, “Pyrazolopyridine Compounds For IRE1 Inhibition” (Optikira, LLC, priority 2019, published 2022).

Test [1] has as its system ARPE-19 cells stably expressing XBP1 (a.a. 1-376). Kind of test: Cellular XBP1 splicing assay (NanoLuc luciferase, thapsigargin). Format: cell-based. Conditions: thapsigargin 150 nM. The method in brief: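 ARPE-19 cells carrying an XBP1(1-376)-NanoLuc splicing reporter were pretreated with compound (10-point ½-log series, 0.117% DMSO) for 30 min, then stressed with 150 nM thapsigargin for 4 h at 37° C. Luminescence was read, and IC50 values came from sigmoidal fits of percent inhibition of control.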

The target of a further test is T1, IRE1α (Homo sapiens, UniProt O75460).
T1 construct: purchased Signal Chem E31-11G
T1 sequence (O75460 468-977 limits assumed): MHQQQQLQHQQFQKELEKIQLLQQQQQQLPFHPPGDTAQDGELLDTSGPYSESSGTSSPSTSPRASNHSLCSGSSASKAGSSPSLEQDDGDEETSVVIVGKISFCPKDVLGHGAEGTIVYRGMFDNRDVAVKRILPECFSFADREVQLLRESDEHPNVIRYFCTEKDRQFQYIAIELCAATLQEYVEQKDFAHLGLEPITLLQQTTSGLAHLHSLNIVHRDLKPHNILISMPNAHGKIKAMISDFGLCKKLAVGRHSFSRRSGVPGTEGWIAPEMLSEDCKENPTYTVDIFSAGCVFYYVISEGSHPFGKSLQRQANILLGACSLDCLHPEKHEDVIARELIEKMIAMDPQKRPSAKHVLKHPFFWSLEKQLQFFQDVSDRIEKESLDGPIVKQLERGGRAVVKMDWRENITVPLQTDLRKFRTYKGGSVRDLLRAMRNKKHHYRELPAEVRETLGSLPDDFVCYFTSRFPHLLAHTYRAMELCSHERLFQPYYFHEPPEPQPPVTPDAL
As to the kind of experiment: Biochemical assay: inhibition of RNase activity of IRE1α. As to conditions: enzyme 0.325 nM, substrate 100 nM, 20 minutes. The method in brief:
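Recombinant IRE1α (0.325 nM final) pre-incubated 30 min at room temperature with compounds (10-point ½-log series, duplicate, 4% DMSO final). Then 100 nM fluorophore/quencher-labelled RNA substrate added in 50 mM Tris, 0.5 mM MgCl2, 10 mM KCl, 2 mM DTT. Urea stop after 20 min; fluorescence read; IC50 from sigmoidal fit.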

Each structure is given as a SMILES string.

Broadly, the IC50 is the concentration that gives 50% inhibition. Lower therefore signals inhibition by little substance.

Turning to `CC(C)n1nc(-c2ccc(NS(=O)(=O)Cc3ccccc3Cl)c(F)c2)c2c(N)ncc(C3=CCC(NC4CC(F)(F)C4)CC3)c21` (single isomer, unassigned) [Compound B48, N-(4-(4-amino-7-(4-((3,3-difluorocyclobutyl)amino)cyclohex-1-en-1-yl)-1-isopropyl-1H-pyrazolo[4,3-c]pyridin-3-yl)-2-fluorophenyl)-1-(2-chlorophenyl)methanesulfonamide], the figures for the IC50 (in test [1] (4 hour); against IRE1α) were 13 nM and 1.3 nM, respectively.

With `CC(C)n1nc(-c2ccc(NS(=O)(=O)Cc3ccccc3Cl)c(F)c2)c2c(N)ncc(C3=CCC(NC4CC(F)(F)C4)CC3)c21` (single isomer, unassigned) [Compound B49, N-(4-(4-amino-7-(4-((3,3-difluorocyclobutyl)amino)cyclohex-1-en-1-yl)-1-isopropyl-1H-pyrazolo[4,3-c]pyridin-3-yl)-2-fluorophenyl)-1-(2-chlorophenyl)methanesulfonamide], the figures for the IC50 (in test [1] (4 hour); at IRE1α) were 64 nM and 4.1 nM, respectively.

As to `CC(C)n1nc(-c2ccc(NS(=O)(=O)c3ccccc3Cl)c(F)c2)c2c(N)ncc(C3=CCC(NC4CC(F)(F)C4)CC3)c21` (single isomer, unassigned) [Compound B50], the IC50 in test [1] (4 hour) amounted to 25 nM; against IRE1α, 5 nM.

For the compound `CC(C)n1nc(-c2ccc(NS(=O)(=O)c3ccccc3Cl)c(F)c2)c2c(N)ncc(C3=CCC(NC4CC(F)(F)C4)CC3)c21` (single isomer, unassigned) [Compound B51], the IC50 in test [1] (4 hour) was 190 nM; against IRE1α it was 31 nM.

`COCCNC1CC=C(c2cnc(N)c3c(-c4ccc(NS(=O)(=O)c5ccccc5Cl)c(F)c4)nn(C(C)C)c23)CC1` (single isomer, unassigned) [Compound B52, N-(4-(4-amino-1-isopropyl-7-(4-((2-methoxyethyl)amino)cyclohex-1-en-1-yl)-1H-pyrazolo[4,3-c]pyridin-3-yl)-2-fluorophenyl)-2-chlorobenzenesulfonamide]: the concentration for half-maximal inhibition (IC50) in test [1] (4 hour) worked out at 9.8 nM; against IRE1α it was 7.8 nM.

As to `COCCNC1CC=C(c2cnc(N)c3c(-c4ccc(NS(=O)(=O)c5ccccc5Cl)c(F)c4)nn(C(C)C)c23)CC1` (single isomer, unassigned) [Compound B53, N-(4-(4-amino-1-isopropyl-7-(4-((2-methoxyethyl)amino)cyclohex-1-en-1-yl)-1H-pyrazolo[4,3-c]pyridin-3-yl)-2-fluorophenyl)-2-chlorobenzenesulfonamide], the IC50 in test [1] (4 hour) is 70 nM; at IRE1α, 17 nM.

As to `COCCNC1CC=C(c2cnc(N)c3c(-c4ccc(NS(=O)(=O)Cc5ccccc5Cl)c(F)c4)nn(C(C)C)c23)CC1` (single isomer, unassigned) [Compound B54, N-(4-(4-amino-1-isopropyl-7-(4-((2-methoxyethyl)amino)cyclohex-1-en-1-yl)-1H-pyrazolo[4,3-c]pyridin-3-yl)-2-fluorophenyl)-1-(2-chlorophenyl)methanesulfonamide], the concentration for half-maximal inhibition (IC50) in test [1] (4 hour) amounted to 28 nM; on IRE1α it was 2 nM.

As for `COCCNC1CC=C(c2cnc(N)c3c(-c4ccc(NS(=O)(=O)Cc5ccccc5Cl)c(F)c4)nn(C(C)C)c23)CC1` (single isomer, unassigned) [Compound B55, N-(4-(4-amino-1-isopropyl-7-(4-((2-methoxyethyl)amino)cyclohex-1-en-1-yl)-1H-pyrazolo[4,3-c]pyridin-3-yl)-2-fluorophenyl)-1-(2-chlorophenyl)methanesulfonamide], the half-maximal inhibitory concentration (IC50) in test [1] (4 hour) was found to be 9 nM; against IRE1α, 0.9 nM.

Consider `CC(C)n1nc(-c2ccc(NS(=O)(=O)c3ccccc3F)c(F)c2)c2c(N)ncc(C3=CCC(NC4COC4)CC3)c21` (single isomer, unassigned) [Compound B58, N-(4-(4-amino-1-isopropyl-7-(4-(oxetan-3-ylamino)cyclohex-1-en-1-yl)-1H-pyrazolo[4,3-c]pyridin-3-yl)-2-fluorophenyl)-2-fluorobenzenesulfonamide], for which the IC50 in test [1] (4 hour) was 250 nM; against IRE1α it was 120 nM.

As for `CCn1nc(-c2ccc(NS(=O)(=O)c3ccccc3Cl)c(F)c2)c2c(N)ncc(C3=CCC(NC4COC4)CC3)c21` (single isomer, unassigned) [Compound B61, N-(4-(4-amino-1-ethyl-7-(4-(oxetan-3-ylamino)cyclohex-1-en-1-yl)-1H-pyrazolo[4,3-c]pyridin-3-yl)-2-fluorophenyl)-2-chlorobenzenesulfonamide], the half-maximal inhibitory concentration (IC50) in test [1] (4 hour) was found to be 110 nM; on IRE1α it was 34 nM.

`CCn1nc(-c2ccc(NS(=O)(=O)c3ccccc3Cl)c(F)c2)c2c(N)ncc(C3=CCC(NC4COC4)CC3)c21` (single isomer, unassigned) [Compound B62, N-(4-(4-amino-1-ethyl-7-(4-(oxetan-3-ylamino)cyclohex-1-en-1-yl)-1H-pyrazolo[4,3-c]pyridin-3-yl)-2-fluorophenyl)-2-chlorobenzenesulfonamide]: the results for the concentration for half-maximal inhibition (IC50) (in test [1] (4 hour); against IRE1α) were 400 nM and 75 nM, respectively.

With `COCCN[C@H]1CC[C@H](c2cnc(N)c3c(-c4cc(F)c(NS(=O)(=O)c5cc(OC)ccc5Cl)cc4F)nn(C(C)C)c32)CC1` [Compound A2, N-(4-(4-amino-1-isopropyl-7-((1r,4r)-4-((2-methoxyethyl)amino)cyclohexyl)-1H-pyrazolo[4,3-c]pyridin-3-yl)-2,5-difluorophenyl)-2-chloro-5-methoxybenzenesulfonamide], the IC50 in test [1] (Homo sapiens, ARPE-19, 4 h) worked out at 3 nM; on IRE1α, 4.6 nM.

Consider `CC(C)n1nc(-c2cc(F)c(NS(=O)(=O)c3ccccc3F)cc2F)c2c(N)ncc([C@H]3CC[C@H](N4CCOCC4)CC3)c21` [Compound A3], for which the IC50 was 15 nM in test [1] (Homo sapiens, ARPE-19, 4 h) and 16 nM against IRE1α.

As for `COCCN[C@H]1CC[C@H](c2cnc(N)c3c(-c4cc(F)c(NS(=O)(=O)c5cc(Cl)ccc5F)cc4F)nn(C(C)C)c32)CC1` [Compound A4, N-(4-(4-amino-1-isopropyl-7-((1r,4r)-4-((2-methoxyethyl)amino)cyclohexyl)-1H-pyrazolo[4,3-c]pyridin-3-yl)-2,5-difluorophenyl)-5-chloro-2-fluorobenzenesulfonamide], the IC50 is 10 nM in test [1] (Homo sapiens, ARPE-19, 4 h) and 1.3 nM at IRE1α.

`COCCN[C@H]1CC[C@H](c2cnc(N)c3c(-c4cc(F)c(NS(=O)(=O)c5cc(OC(F)F)ccc5F)cc4F)nn(C(C)C)c32)CC1` [Compound A5, N-(4-(4-amino-1-isopropyl-7-((1r,4r)-4-((2-methoxyethyl)amino)cyclohexyl)-1H-pyrazolo[4,3-c]pyridin-3-yl)-2,5-difluorophenyl)-5-(difluoromethoxy)-2-fluorobenzenesulfonamide]: the IC50 in test [1] (Homo sapiens, ARPE-19, 4 h) was found to be 25 nM; against IRE1α it was 1.9 nM.

Take `COCCN[C@H]1CC[C@H](c2cnc(N)c3c(-c4ccc(NS(=O)(=O)c5ccccc5F)c(F)c4)nn(C(C)C)c32)CC1` [Compound A6, N-(4-(4-amino-1-isopropyl-7-((1r,4r)-4-((2-methoxyethyl)amino)cyclohexyl)-1H-pyrazolo[4,3-c]pyridin-3-yl)-2-fluorophenyl)-2-fluorobenzenesulfonamide]: the IC50 amounted to 2.7 nM in test [1] (Homo sapiens, ARPE-19, 4 h) and 2.6 nM against IRE1α.
